Data on 23 molecules can be found in patent US6855710B2, “Substituted indolines with an inhibitory effect on various kinases and complexes of CDKs” (Boehringer Ingelheim Pharma KG, priority 1998, dated 2005).

Regarding `O=C(O)Cc1cccc(N/C(=C2\C(=O)Nc3ccccc32)c2ccccc2)c1` [Example 12, (Z)-3-[1-(3-carboxymethyl-phenylamino)-1-phenyl-methylidene]-2-indolinone], the melting point fell in the range of 268 to 270 °C. Take `O=C1Nc2ccc([N+](=O)[O-])cc2/C1=C(/Nc1ccc(CN2CCCCC2)cc1)c1ccc(Cn2ccnc2)cc1` [Example 439, (Z)-3-{1-[4-piperidinomethyl-phenylamino]-1-[4-(imidazol-1-yl-methyl)-phenyl]-methylidene}-5-nitro-2-indolinone]: the melting point is 226 to 228 °C. `CN(C)CCN(c1ccc(N/C(=C2\C(=O)Nc3ccccc32)c2ccc(CN)cc2)cc1)S(C)(=O)=O` [Example 426, (Z)-3-{1-[4-(N-(2-dimethylaminoethyl)-N-methylsulphonyl-amino)-phenylamino]-1-(4-aminomethyl-phenyl)-methylidene}-2-indolinone] yielded a melting point of 203 to 205 °C. With `CN(CC(=O)O)C(=O)c1cccc(N/C(=C2\C(=O)Nc3ccccc32)c2ccccc2)c1` [Example 26, (Z)-3-{1-[3-(N-carboxymethyl-N-methyl-aminocarbonyl)-phenyl-amino]-1-phenyl-methylidene}-2-indolinone] the figure was 218 to 220 °C; with `Nc1ccc(N/C(=C2\C(=O)Nc3ccc([N+](=O)[O-])cc32)c2ccccc2)cc1` [Example 91, (Z)-3-[1-(4-aminophenylamino)-1-phenyl-methylidene]-5-nitro-2-indolinone], 269 °C. Molecule `CC(C)CN(Cc1ccc(N/C(=C2\C(=O)Nc3ccc([N+](=O)[O-])cc32)c2ccccc2)cc1)CC(C)C` [Example 163, (Z)-3-[1-(4-Diisobutylaminomethyl-phenylamino)-1-phenyl-methylidene]-5-nitro-2-indolinone] displayed a melting point of 204 to 207 °C. In the case of `CC(C)(C)OC(=O)NCC(=O)NCc1ccc(N/C(=C2\C(=O)Nc3ccc([N+](=O)[O-])cc32)c2ccccc2)cc1` [Example 144, (Z)-3-[1-(4-tert.butoxycarbonylaminomethylcarbonylaminomethyl-phenylamino)-1-phenyl-methylidene]-5-nitro-2-indolinone] it was 219 to 221 °C (dec.). With `CC(=O)Nc1ccc(N/C(=C2\C(=O)Nc3ccc([N+](=O)[O-])cc32)c2ccccc2)cc1` [Example 93, (Z)-3-[1-(4-acetylamino-phenylamino)-1-phenyl-methylidene]-5-nitro-2-indolinone] the figure was 328 to 330 °C; with `O=C(O)CNCCc1ccc(N/C(=C2\C(=O)Nc3ccc([N+](=O)[O-])cc32)c2ccccc2)cc1` [Example 258, (Z)-3-{1-[4-(2-carboxymethylamino-ethyl)-phenylamino]-1-phenyl-methylidene}-5-nitro-2-indolinone], 242 to 243 °C (dec.); with `CN(C(=O)C(F)(F)F)c1cccc(N/C(=C2\C(=O)Nc3ccccc32)c2ccccc2)c1` [Example 36, (Z)-3-{1-[3-(N-trifluoroacetyl-N-methyl-amino)-phenylamino]-1-phenyl-methylidene}-2-indolinone], 224 to 227 °C. In the case of `CC(=O)Nc1cccc(N/C(=C2\C(=O)Nc3ccccc32)c2ccccc2)c1` [Example 32, (Z)-3-[1-(3-acetylamino-phenylamino)-1-phenyl-methylidene]-2-indolinone] it was 285 to 288 °C. For `CC(C)C(=O)N(CCN1CCOCC1)c1ccc(N/C(=C2\C(=O)Nc3ccccc32)c2ccccc2)cc1` [Example 350, (Z)-3-{1-[4-(N-(2-morpholinoethyl)-N-isopropylcarbonyl-amino)-phenylamino]-1-phenyl-methylidene}-2-indolinone], the melting point amounted to 239 °C. With `O=C1Nc2ccc([N+](=O)[O-])cc2/C1=C(/Nc1ccc(CN2CCCCC2)cc1)c1ccc(Cl)cc1` [Example 443, (Z)-3-[1-(4-piperidinomethyl-phenylamino)-1-(4-chlorophenyl)-methylidene]-5-nitro-2-indolinone] the figure was 309 to 311 °C; with `CCN(CC)S(=O)(=O)c1ccc(N/C(=C2\C(=O)Nc3ccccc32)c2ccccc2)cc1` [Example 398, (Z)-3-{1-[4-(diethylaminosulphonyl)-phenylamino]-1-phenyl-methylidene}-2-indolinone], 252 to 254 °C; with `CNC(=O)CN(C(=O)c1ccccc1)c1ccc(N/C(=C2\C(=O)Nc3ccccc32)c2ccccc2)cc1` [Example 362, (Z)-3-{1-[4-(N-methylaminocarbonylmethyl-N-benzoyl-amino)-phenylamino]-1-phenyl-methylidene}-2-indolinone], 260 to 262 °C. Consider `O=C1Nc2ccc([N+](=O)[O-])cc2/C1=C(/Nc1ccc(CCN2CCC(C(=O)O)CC2)cc1)c1ccccc1` [Example 263, (Z)-3-{1-[4-(2-(4-carboxypiperidino)-ethyl)-phenylamino]-1-phenyl-methylidene}-5-nitro-2-indolinone], for which the melting point fell in the range of 287 to 288 °C. Molecule `CN(C)CC(=O)NCc1ccc(N/C(=C2\C(=O)Nc3ccc([N+](=O)[O-])cc32)c2ccccc2)cc1` [Example 142, (Z)-3-[1-(4-dimethylaminomethylcarbonylaminomethyl-phenylamino)-1-phenyl-methylidene]-5-nitro-2-indolinone] returned a melting point of 272 to 273 °C. In turn, `O=C1Nc2ccc([N+](=O)[O-])cc2/C1=C(/Nc1ccc(NCCN2CCOCC2)cc1)c1ccccc1` [Example 332, (Z)-3-{1-[4-(2-morpholinoethylamino)-phenylamino]-1-phenyl-methylidene}-5-nitro-2-indolinone] registered a melting point of 253 °C. In the case of `CN(C)S(=O)(=O)c1ccc(N/C(=C2\C(=O)Nc3ccccc32)c2ccccc2)cc1` [Example 405, (Z)-3-{1-[4-(dimethylaminosulphonyl)-phenylamino]-1-phenyl-methylidene}-2-indolinone] it was 280 °C.

For the molecule `C[C@@H](NC(=O)OC(C)(C)C)c1ccc(N/C(=C2\C(=O)Nc3ccc([N+](=O)[O-])cc32)c2ccccc2)cc1` [Example 125, (Z,R)-3-{1-[4-(1-tert.butoxycarbonylamino-ethyl)-phenylamino]-1-phenyl-methylidene}-5-nitro-2-indolinone], the melting point fell in the range of 247 to 249 °C. `COC(=O)Cc1ccc(N/C(=C2\C(=O)Nc3ccc([N+](=O)[O-])cc32)c2ccccc2)cc1` [Example 180, (Z)-3-[1-(4-methoxycarbonylmethyl-phenylamino)-1-phenyl-methylidene]-5-nitro-2-indolinone] displayed a melting point of 238 to 240 °C.

`CN(C)CCCOc1ccc(N/C(=C2\C(=O)Nc3ccccc32)c2ccccc2)cc1` [Example 286, (Z)-3-{1-[4-(3-dimethylaminopropyloxy)-phenylamino]-1-phenyl-methylidene}-2-indolinone] displayed a melting point of 215 to 217 °C. With `Cc1cccc(/C(Nc2ccc(CN(C)C)cc2)=C2/C(=O)Nc3ccc([N+](=O)[O-])cc32)c1` [Example 214, (Z)-3-[1-(4-dimethylaminomethyl-phenylamino)-1-(m-tolyl)-methylidene]-5-nitro-2-indolinone] the figure was 210 °C.

A word on the melting point: it is the temperature, or range, at which the solid turns liquid.
